From ChEMBL document CHEMBL4706689, “Synthesis and antifungal activity of polycyclic pyridone derivatives with anti-hyphal and biofilm formation activity against Candida albicans” (2021)
Active and inactive are the calls of the source. No cut-off for these calls is given here.

What was measured:
[1] = tested on: Candida albicans; assay: Inhibition of hyphal formation in Candida albicans SC5314 cultured in spider medium assessed as reduction in hyphal length at 25 ug/ml relative to control; format: functional
[2] = tested on: Candida albicans; assay: Inhibition of biofilm formation in Candida albicans SC5314 at 25 ug/ml by XTT assay relative to control; format: functional
[3] = tested on: Candida albicans; assay: Inhibition of hyphal formation in Candida albicans SC5314 cultured in spider medium assessed as reduction in hyphal length; format: functional, organism-based; conditions: dose 3.12-25 µg/ml
[4] = tested on: Candida albicans; assay: Inhibition of biofilm formation in Candida albicans SC5314 by XTT assay; format: functional, organism-based
[5] = tested on: Candida albicans; assay: Inhibition of biofilm formation in Candida albicans SC5314 at 6.25 to 25 ug/ml by XTT assay; format: functional, organism-based; conditions: dose 6.25-25 µg/ml

Structure (SMILES) | inhibition at 25 µg/mL [1] [%] | inhibition at 25 µg/mL [2] [%] | inhibition [3] | inhibition [4] | inhibition [5]
CC1(C)C=Cc2c(c(-c3ccccc3)c[nH]c2=O)O1 | > 50 | 18.7 | Dose-dependent effect |  | 
CC(C)=CC[C@]1(C)Oc2c(-c3ccc(C)cc3)c(Cl)[nH]c(=O)c2[C@H]2c3ccccc3OC[C@H]21 | 30 |  |  |  | 
Cc1ccc(-c2c(Cl)[nH]c(=O)c3c2OC(C)(C)C=C3)cc1 | 30 |  |  |  | 
Cc1ccc(-c2c(Cl)[nH]c(=O)c3c2O[C@H](C)[C@@H]2COc4ccccc4[C@H]32)cc1 | > 50 |  | Dose-dependent effect | inactive | 
C[C@H]1CC[C@H]2[C@H](C1)c1c(c(-c3cccs3)c(Cl)[nH]c1=O)OC2(C)C | 30 |  |  |  | 
C[C@H]1Oc2c(-c3cccs3)c(Cl)[nH]c(=O)c2[C@H]2c3ccccc3OC[C@H]21 | 30 |  |  |  | 
Cc1ccc(-c2c[nH]c(=O)c3c2OC(C)(C)C=C3)cc1 | > 50 | 17.9 | Dose-dependent effect |  | 
CC1(C)C=Cc2c(c(-c3cccs3)c(Cl)[nH]c2=O)O1 | > 50 |  | Dose-dependent effect |  | Active
CC1(C)C=Cc2c(c(-c3ccccc3)c(Cl)[nH]c2=O)O1 | 30 |  |  |  | 
CC(C)=CCC1(C)C=Cc2c(c(-c3ccc(C)cc3)c(Cl)[nH]c2=O)O1 (stereo not drawn) | 30 |  |  |  | 
